PubChem BioAssay AID248 (DTP/NCI, 2004)
Inconclusive results and toxic doses are left out. Cut-off read from the data, not from the text of the source: active = T/C of 150% or more; inactive = T/C below 125%.

Test system: L1210 leukemia ip in BDF1 mice, survival T/C
Assay: NCI In Vivo Anticancer Drug Screen. Data for tumor model L1210 Leukemia (intraperitoneal) in B6D2F1 (BDF1) mice
Details: endpoint: mean survival time, higher = longer survival
Outline: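 Antitumor effect is assessed in tumor-bearing animals. Survival in the compound arm is compared with a vehicle-dosed control arm and expressed as their quotient.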

[1] = dose: 100.0 mg/kg/injection, schedule: Q04DX002 (ip), vehicle: Klucel (hydroxypropylcellulose) (HPC)
[2] = dose: 200.0 mg/kg/injection, schedule: Q04DX002 (ip), vehicle: Klucel (hydroxypropylcellulose) (HPC)
[3] = dose: 400.0 mg/kg/injection, schedule: Q04DX002 (ip), vehicle: Klucel (hydroxypropylcellulose) (HPC)
[4] = dose: 100.0 mg/kg/injection, schedule: Q01DX009 (ip), vehicle: saline with Tween-80
[5] = dose: 200.0 mg/kg/injection, schedule: Q01DX009 (ip), vehicle: saline with Tween-80
[6] = dose: 100.0 mg/kg/injection, schedule: Q04DX003 (ip), vehicle: saline
[7] = dose: 200.0 mg/kg/injection, schedule: Q04DX003 (ip), vehicle: saline
[8] = dose: 400.0 mg/kg/injection, schedule: Q04DX003 (ip), vehicle: saline
[9] = dose: 100.0 mg/kg/injection, schedule: Q04DX003 (ip), vehicle: Klucel (hydroxypropylcellulose) (HPC)
[10] = dose: 200.0 mg/kg/injection, schedule: Q04DX003 (ip), vehicle: Klucel (hydroxypropylcellulose) (HPC)
[11] = dose: 400.0 mg/kg/injection, schedule: Q04DX003 (ip), vehicle: Klucel (hydroxypropylcellulose) (HPC)
[12] = dose: 100.0 mg/kg/injection, schedule: Q01DX001 (ip), vehicle: saline
[13] = dose: 200.0 mg/kg/injection, schedule: Q01DX001 (ip), vehicle: saline
[14] = dose: 400.0 mg/kg/injection, schedule: Q01DX001 (ip), vehicle: saline
[15] = dose: 10.0 mg/kg/injection, schedule: Q01DX001 (ip), vehicle: saline
[16] = dose: 100.0 mg/kg/injection, schedule: Q04DX003 (ip), vehicle: saline with Tween-80
[17] = dose: 200.0 mg/kg/injection, schedule: Q04DX003 (ip), vehicle: saline with Tween-80
[18] = dose: 400.0 mg/kg/injection, schedule: Q04DX003 (ip), vehicle: saline with Tween-80
[19] = dose: 100.0 mg/kg/injection, schedule: Q04DX002 (ip), vehicle: saline with Tween-80
[20] = dose: 200.0 mg/kg/injection, schedule: Q04DX002 (ip), vehicle: saline with Tween-80
[21] = dose: 400.0 mg/kg/injection, schedule: Q04DX002 (ip), vehicle: saline with Tween-80
[22] = dose: 100.0 mg/kg/injection, schedule: Q01DX001 (ip), vehicle: carboxymethylcellulose (CMC)
[23] = dose: 200.0 mg/kg/injection, schedule: Q01DX001 (ip), vehicle: carboxymethylcellulose (CMC)
[24] = dose: 400.0 mg/kg/injection, schedule: Q01DX001 (ip), vehicle: carboxymethylcellulose (CMC)
[25] = dose: 50.0 mg/kg/injection, schedule: Q01DX001 (ip), vehicle: carboxymethylcellulose (CMC)

Measured: T/C

CCCCCCCCC1SC1CCCCCCCC(=O)O (centres undefined)
inactive: [1] 103 % of control | [2] 100 % of control | [3] 95 % of control

Cc1ccc(S(=O)(=O)Nc2ccc(Nc3ccccc3)cc2)cc1
inactive: dose: 50.0 mg/kg/injection, schedule: Q01DX009 (ip), vehicle: saline with Tween-80 94 % of control | [4] 94 % of control | [5] 102 % of control

Clc1ccc2c(Cl)ccnc2c1
inactive: dose: 100.0 mg/kg/injection, schedule: Q04DX002 (ip), vehicle: gum acacia 91 % of control | dose: 200.0 mg/kg/injection, schedule: Q04DX002 (ip), vehicle: gum acacia 95 % of control

CC(=O)Nc1ccc(C(N)=O)cn1
inactive: dose: 8.0 mg/kg/injection, schedule: Q01DX009 (ip), vehicle: carboxymethylcellulose (CMC) 98 % of control | dose: 16.0 mg/kg/injection, schedule: Q01DX009 (ip), vehicle: carboxymethylcellulose (CMC) 98 % of control | dose: 32.0 mg/kg/injection, schedule: Q01DX009 (ip), vehicle: carboxymethylcellulose (CMC) 98 % of control | dose: 64.0 mg/kg/injection, schedule: Q01DX001 (ip), vehicle: carboxymethylcellulose (CMC) 94 % of control | dose: 64.0 mg/kg/injection, schedule: Q01DX009 (ip), vehicle: carboxymethylcellulose (CMC) 118 % of control | dose: 128.0 mg/kg/injection, schedule: Q01DX001 (ip), vehicle: carboxymethylcellulose (CMC) 92 % of control | dose: 256.0 mg/kg/injection, schedule: Q01DX001 (ip), vehicle: carboxymethylcellulose (CMC) 97 % of control | dose: 512.0 mg/kg/injection, schedule: Q01DX001 (ip), vehicle: carboxymethylcellulose (CMC) 92 % of control

CC(C)OP(=O)(CP(=O)(OC(C)C)OC(C)C)OC(C)C
inactive: dose: 100.0 mg/kg/injection, schedule: Q01DX009 (ip), vehicle: saline 95 % of control | dose: 200.0 mg/kg/injection, schedule: Q01DX009 (ip), vehicle: saline 97 % of control

NC(=N\C1=NCCO1)/C(N)=N/C1=NCCO1
inactive: [6] 109 % of control | [7] 107 % of control | [8] 97 % of control

CCCCOc1ccc(C(=O)N/N=C\c2cc(OC)c(OC)c(OC)c2)cc1
inactive: [9] 94 % of control | [10] 94 % of control | [11] 91 % of control

CS(=O)CC(O)(c1ccccc1)c1ccccc1 (centres undefined)
inactive: dose: 50.0 mg/kg/injection, schedule: Q01DX001 (ip), vehicle: saline 102 % of control | [12] 101 % of control | [13] 98 % of control | [14] 97 % of control

Cc1ccc(NC(=O)C2C3CC4OC(=O)C2C4C3)cc1 (centres undefined)
inactive: [6] 102 % of control | [7] 108 % of control | [8] 111 % of control

NC(=S)N=Nc1c(O)cc(O)c2[nH]c(=O)ccc12
inactive: dose: 5.0 mg/kg/injection, schedule: Q01DX001 (ip), vehicle: saline 101 % of control | [15] 101 % of control | dose: 20.0 mg/kg/injection, schedule: Q01DX001 (ip), vehicle: saline 103 % of control | dose: 40.0 mg/kg/injection, schedule: Q01DX001 (ip), vehicle: saline 105 % of control | dose: 80.0 mg/kg/injection, schedule: Q01DX001 (ip), vehicle: saline 108 % of control

CN(C)CCC/C=N/Nc1ccc(Cl)cc1[N+](=O)[O-]
inactive: [16] 96 % of control | [17] 91 % of control

Cc1cccc(C)c1N1C(=O)CC(Sc2ccccc2N)C1=O (centres undefined)
inactive: dose: 100.0 mg/kg/injection, schedule: Q01DX009 (ip), vehicle: Klucel (hydroxypropylcellulose) (HPC) 92 % of control | [9] 98 % of control | dose: 200.0 mg/kg/injection, schedule: Q01DX009 (ip), vehicle: Klucel (hydroxypropylcellulose) (HPC) 88 % of control | [10] 95 % of control | dose: 400.0 mg/kg/injection, schedule: Q01DX009 (ip), vehicle: Klucel (hydroxypropylcellulose) (HPC) 88 % of control | [11] 93 % of control

CCOC(=O)P(C(=O)OCC)C(=O)OCC
inactive: dose: 75.0 mg/kg/injection, schedule: Q01DX001 (ip), vehicle: saline 97 % of control

CCC(O)C(CCN(C)C)(CN(C)C)c1ccccc1 (centres undefined)
inactive: dose: 75.0 mg/kg/injection, schedule: Q01DX001 (ip), vehicle: carboxymethylcellulose (CMC) 94 % of control | dose: 150.0 mg/kg/injection, schedule: Q01DX001 (ip), vehicle: carboxymethylcellulose (CMC) 102 % of control

O=C1C=C2CCN(Cc3ccccc3)CC2CC1 (centres undefined)
inactive: dose: 100.0 mg/kg/injection, schedule: Q01DX001 (ip), vehicle: acetone 97 % of control | [6] 104 % of control | dose: 200.0 mg/kg/injection, schedule: Q01DX001 (ip), vehicle: acetone 102 % of control | [7] 101 % of control | dose: 400.0 mg/kg/injection, schedule: Q01DX001 (ip), vehicle: acetone 98 % of control

COC(=O)CNC(=O)C(Cc1ccc(OCc2ccccc2)cc1)NC=O (centres undefined)
inactive: [4] 89 % of control | [16] 105 % of control | [5] 90 % of control | [17] 100 % of control | dose: 400.0 mg/kg/injection, schedule: Q01DX009 (ip), vehicle: saline with Tween-80 90 % of control | [18] 102 % of control

COc1cccc(/C=C2\SC(=S)NC2=O)c1
inactive: [12] 101 % of control | [13] 95 % of control | [14] 95 % of control

CCOC(=O)CCCCCCCCCCNC(=O)NCc1ccccc1
inactive: [19] 90 % of control | [20] 87 % of control | [21] 97 % of control

CNP(Br)(c1ccccc1)(c1ccccc1)c1ccccc1
inactive: [15] 101 % of control

COC1CCC(/C=C(\C#N)C2CCC(OC)CC2)CC1 (centres undefined)
inactive: [1] 96 % of control | [2] 92 % of control | [3] 96 % of control

CSCCNC(=O)NS(=O)(=O)c1ccc(C)cc1
inactive: [16] 96 % of control | [17] 97 % of control | [18] 97 % of control

C(=N\N1CCN(/N=C/c2ccccc2)C1c1ccccc1)/c1ccccc1
inactive: [9] 106 % of control | [10] 94 % of control | [11] 101 % of control

C=C(OCC)P(=O)(OCCCC)OCCCC
inactive: [19] 100 % of control | [20] 90 % of control | [21] 93 % of control

O=[N+]([O-])c1ccc(Oc2ccccc2)c(S(=O)(=O)O)c1
inactive: [16] 103 % of control | [17] 94 % of control | [18] 97 % of control

CCCOc1ccc([N+](=O)[O-])cc1N
inactive: [22] 96 % of control | [23] 100 % of control | [24] 94 % of control

O=C1CC(Cl)C(=O)N1c1ccccc1 (centres undefined)
inactive: dose: 75.0 mg/kg/injection, schedule: Q01DX009 (ip), vehicle: saline with Tween-80 112 % of control | dose: 75.0 mg/kg/injection, schedule: Q04DX003 (ip), vehicle: saline with Tween-80 96 % of control | dose: 150.0 mg/kg/injection, schedule: Q01DX009 (ip), vehicle: saline with Tween-80 102 % of control | dose: 150.0 mg/kg/injection, schedule: Q04DX003 (ip), vehicle: saline with Tween-80 102 % of control | dose: 300.0 mg/kg/injection, schedule: Q04DX003 (ip), vehicle: saline with Tween-80 101 % of control

Nc1nc(N)c(-c2ccc(Cl)cc2)c(CO)n1
inactive: [12] 93 % of control | [13] 104 % of control | [14] 95 % of control

Cc1c2c(cc3c1OCN(Cc1ccccc1)C3)CN(Cc1ccccc1)CO2
inactive: [25] 105 % of control | [22] 94 % of control | [23] 89 % of control | [24] 91 % of control

CCOP(=O)(Nc1ccc2c(c1)Cc1cc([N+](=O)[O-])ccc1-2)OCC
inactive: [25] 97 % of control | [22] 94 % of control | [23] 92 % of control | [24] 94 % of control
